Data from US20080070980A1, “Use Of Beta-Cryptoxanthin” (priority 2004, published 2008).

Key:
[1] = test system: genes involved in protein synthesis; assay: six weeks feeding study in SKH-1 mice, gene expression by GeneChip DNA microarray in kidney, liver, skin and spleen; type: in vivo; settings: 1200 ppm in feed with sodium cholate
Description: In a six weeks study, β-cryptoxanthin beadlets were mixed into the diet of SKH-1 mice to provide 1200 ppm β-cryptoxanthin in the feed. Further, 0.125 g of sodium cholate per 100 g of feed was added to facilitate the uptake of β-cryptoxanthin. The average β-cryptoxanthin intake was 6.5 mg pro mouse and pro day. After six weeks, the effect of this dose on the overall gene expression was studied. β-cryptoxanthin-mediated gene expression modifications were assessed by GeneChip® DNA microarray technology. Total RNA was extracted from kidney, liver, skin and spleen using the TRIzol® method according to the manufacturer protocol. Reverse Transcription was performed with 10 μg total RNA followed by second strand synthesis of cDNA. The cDNA was then transcribed into multiple cRNA copies and labelled by biotin-coupled nucleotides and fragmented. 10 μg of labelled and fragmented cRNA were hybridized on Affymetrix Mice Genome 430A microarrays as described in the GeneChip® Expression Analysis Technical Manual (Affymetrix, Oxford, UK). For each β-cryptoxanthin-treated tissue, five replicates were performed and compared to six replicates of untreated control mice. […] Subsequently, the microarrays were subjected to laser scanning and the hybridization signals were analyzed with Genedata Expressionist® and Phylosopher® software packages (Genedata, Basel, Switzerland). […]

[2] = test system: mouse myoblast cell line C2C12; assay: protein formation in C2C12 muscle cell cultures (BCA protein assay, Pico-green DNA assay); type: cell-based
Description: β-Cyptoxanthin enhances protein formation in muscle cell cultures
C2C12 cells from American Type Culture Collection (ATCC, CRL-1772).
The mouse myoblast cell line C2C12 was seeded into 6 cm^2 cell culture dishes at a density 2×10^5 cells/per well. Cells were cultivated in the presence of Dulbecco's […] (DMEM) containing a final concentration of 10% fetal calf serum, 4500 mg/L glucose, 100 IU/ml Penicillin & 100 μg/ml Streptomycin 2 mM L-Glutamine and 1 mM sodium pyruvate. One day post seeding, cells were supplemented with fresh medium containing β-cryptoxanthin with a final concentration of 0.25 μM or 1 μM or vehicle (tetrahydrofurane). β-cryptoxanthin stock solution was prepared in tetrahydrofurane and the solvent concentration in the media was kept constant at 0.14% for all treatment conditions. Cultivation in medium containing β-cryptoxanthin followed up for a total of 7 consecutive days. The medium was changed every second day. On each day, cells from one well per treatment group were scraped into 0.4 ml of a lysis buffer consisting of 20 mM Tris pH 7.5, NaCl 150 mM, EDTA 1 mM, Nonidet 1%, proteinase inhibitors (Roche Molecular Systems, Mannheim Germany) and sonicated.
Aliquots of 10 μl of this solution were used for total protein, and 2 μl for total DNA analysis. After centrifugation for 5 min at 10000 g, supernatants were used for protein and DNA analysis in the soluble fraction.
Protein was determined using the BCA Protein Assay Reagent (Pierce, Rockford, USA). The Pico-green Assay (Molecular Probes, Leiden, The Netherlands) was used for analysis of DNA content.
The amount of protein was calculated as μg/well or in relation to the amount of cells present in the well, as indirectly determined by the amount of DNA/well.

[3] = 0.25 μM, 1 day in culture, C2C12
[4] = 0.25 μM, 2 days in culture, C2C12
[5] = 0.25 μM, 3 days in culture, C2C12
[6] = 0.25 μM, 4 days in culture, C2C12
[7] = 0.25 μM, 5 days in culture, C2C12
[8] = 0.25 μM, 6 days in culture, C2C12
[9] = 0.25 μM, 7 days in culture, C2C12

## CC1=C(/C=C/C(C)=C/C=C/C(C)=C/C=C/C=C(C)/C=C/C=C(C)/C=C/C2=C(C)C[C@@H](O)CC2(C)C)C(C)(C)CCC1 [β-cryptoxanthin]
[1]
  expression of genes involved in protein synthesis in skin, liver, kidney and spleen: up-regulated
[2]; [3]
  soluble protein μg/well: 536 μg/well
  total protein μg/well: 703.6 μg/well
  μg soluble protein/μg DNA: 227 μg soluble protein/μg DNA
[2]; [4]
  soluble protein μg/well: 592 μg/well
  total protein μg/well: 753.6 μg/well
  μg soluble protein/μg DNA: 244 μg soluble protein/μg DNA
[2]; [5]
  soluble protein μg/well: 626 μg/well
  total protein μg/well: 771.2 μg/well
  μg soluble protein/μg DNA: 274 μg soluble protein/μg DNA
[2]; [6]
  soluble protein μg/well: 915 μg/well
  total protein μg/well: 1136 μg/well
  μg soluble protein/μg DNA: 406 μg soluble protein/μg DNA
[2]; [7]
  soluble protein μg/well: 1091 μg/well
  total protein μg/well: 1314.4 μg/well
  μg soluble protein/μg DNA: 505 μg soluble protein/μg DNA
[2]; [8]
  soluble protein μg/well: 1267 μg/well
  total protein μg/well: 1411.2 μg/well
  μg soluble protein/μg DNA: 713 μg soluble protein/μg DNA
[2]; [9]
  soluble protein μg/well: 1284 μg/well
  total protein μg/well: 1257.2 μg/well
  μg soluble protein/μg DNA: 693 μg soluble protein/μg DNA
[2]; 0.25 μM, C2C12 (Table 3)
  change in soluble protein: an increase in soluble protein
[2]; 0.25 μM, C2C12 (Table 4)
  change in specific amount of protein/μg DNA: an increase in the specific amount of protein/μg DNA
[2]; 0.25 μM, C2C12, versus vehicle (Table 2)
  increase in total protein: approx. 1.4 fold
[2]; 1 μM, 1 day in culture, C2C12
  soluble protein μg/well: 574 μg/well
  total protein μg/well: 750 μg/well
  μg soluble protein/μg DNA: 246 μg soluble protein/μg DNA
[2]; 1 μM, 2 days in culture, C2C12
  soluble protein μg/well: 547 μg/well
  total protein μg/well: 757.2 μg/well
  μg soluble protein/μg DNA: 231 μg soluble protein/μg DNA
[2]; 1 μM, 3 days in culture, C2C12
  soluble protein μg/well: 609 μg/well
  total protein μg/well: 750 μg/well
  μg soluble protein/μg DNA: 265 μg soluble protein/μg DNA
[2]; 1 μM, 4 days in culture, C2C12
  soluble protein μg/well: 857 μg/well
  μg soluble protein/μg DNA: 382 μg soluble protein/μg DNA
[2]; 1 μM, 5 days in culture, C2C12
  soluble protein μg/well: 1126 μg/well
  total protein μg/well: 1236 μg/well
  μg soluble protein/μg DNA: 539 μg soluble protein/μg DNA
[2]; 1 μM, 6 days in culture, C2C12
  soluble protein μg/well: 1146 μg/well
  total protein μg/well: 1232.4 μg/well
  μg soluble protein/μg DNA: 624 μg soluble protein/μg DNA
[2]; 1 μM, 7 days in culture, C2C12
  soluble protein μg/well: 1118 μg/well
  total protein μg/well: 1193.2 μg/well
  μg soluble protein/μg DNA: 644 μg soluble protein/μg DNA
[2]; 1 μM, C2C12
  effect on protein formation at higher concentration: plateaued
